Data from US20020183725A1, “Masking Agent” (priority 2001, published 2002).

Experiments:
[1] = Light absorption study of masking solutions with laser radiation (Beer's law, transmission vs. concentration); assay type: physicochemical; details: 213 nm laser wavelength; reciprocal of absorption coefficient
Method: Light absorbent studies were carried out using 213 nm radiation produced as the fifth harmonic wavelength of the fundamental 1064 nm wavelength of an Nd:YAG laser, with a pulse duration of 6 ns and repetition rate of 20 Hz. The pulse energy of the laser was monitored using an energy detector and a storage oscilloscope. The energy of the laser was obtained from the amplitude of the voltage signal delivered from the detector.
Beer's Law states that if light is passed through solution, energy is attenuated according to the formula:
Where: αM is the molar absorption coefficient in M^−1 cm^−1
C is the concentration in moles per liter
Ef and Ei are the final and initial pulse energies respectively.
In order to determine the amount of light absorbed (A) by the solution the molar absorption co-efficient is found from the gradient of the log-linear plot of Beer's law.
The absorption coefficient (α cm^−1) can then be calculated by multiplying the molar absorption coefficient by the concentration. Once the absorption coefficient is obtained, the penetration depth can be calculated from the reciprocal of this value.
Readings were taken for BSS maintaining the same dilutions. […] Five random readings were taken for each dilution and the mean calculated, in order to reduce the error from inter-pulse variations. […]

[2] = Fluorescence under the incident laser beam; assay type: physicochemical; details: laser beam incident on it
Source text: This would be a useful property in PTK.

Penetration Depth [1]: 50.3 μm
Compound: CC1COc2c(N3CCN(C)CC3)c(F)cc3c(=O)c(C(=O)O)cn1c23 (centres unmarked) [Ofloxacin, 9-fluoro-2,3-dihydro-3-methyl-10-(4-methyl-1-piperazinyl)-7-oxo-7H-pyrido[1,2,3-de][1,4]benzoxazine-6-carboxylic acid]
Fluorescence when the laser beam is incident [2]: fluoresces
